# Source: ChEMBL document CHEMBL3507680, “University of Dundee, Gates Library screen for HepG2 cell viability”
# Assay: Human HepG2 cell viability assay in 384 well format
# Type: toxicity, cell-based
# Parameters: dose 125 nL, time 70.5 hour; cytotoxicity at 70.5 h: concentration not given beside the values
# Conditions: HepG2 cells, read-out: Inhibition
row,Structure (SMILES),cytotoxicity at 70.5 h
1,Cc1cc(C(=O)N2CC[C@@H](N(C)C)[C@@H]2Cc2ccccc2)no1,-0.0942%
2,CC(C)Oc1nnc(SCC(=O)NCC(=O)N2CCCC2)s1,-10.4%
3,O=S(=O)(Cc1nc(C2CC2)no1)c1ccccc1F,-11.9%
4,CCc1nnc2n1CCN(C(=O)c1cc(C)n(-c3ccccc3)c1C)C2,-4.27%
5,COc1cc(S(=O)(=O)N2CCc3ccccc32)cc(C(=O)O)c1OC,-5.58%
6,Cc1n[nH]c(C)c1C1CCCN1C(=O)NC(C)(C)C (stereo not drawn),4.46%
7,CC(C(=O)N1CCCCCC1)N1CCN(Cc2nccn2C)CC1 (stereo not drawn),-4.84%
8,CS(=O)(=O)NCc1cc(-c2cc(F)cc(F)c2)nc(N2CCCC2)n1,-12.8%
9,Cn1cc(CN2CCCN(CCCc3ccccc3)CC2)cn1,-15.4%
10,CCc1nc(NCC2CCCN(C(=O)C3CC3)C2)c2cnn(C)c2n1 (stereo not drawn),-16.2%
11,CC(=O)NCc1nc(CCOc2ccc(Cl)cc2)no1,-4.84%
12,CC(C)N1CCN(C(=O)c2ccc(Cn3ccccc3=O)o2)CC1,-5.81%
13,NC(=O)C1(CCCc2ccccn2)CCCN(c2ncccn2)C1 (stereo not drawn),-2.53%
14,CSCC(CCO)NC(=O)c1cccc(F)c1Cl (stereo not drawn),24.5%
15,O=C(c1cc2c(s1)CCC2)N1CCCC1c1noc(C2CC2)n1 (stereo not drawn),-0.753%
16,Cn1cc(CNC2CCc3ncnn3C2)c(-c2cccnc2)n1 (stereo not drawn),-5.95%
17,O=C(Nc1nncs1)N(Cc1cccc(O)c1)C1CC1,-4.79%
18,c1ccc(C2CN(c3ncnc4[nH]cnc34)CCO2)cc1 (stereo not drawn),-8.36%
19,Cc1ccc(OCc2occc2C(=O)N2CCOC(C(=O)O)C2)cc1 (stereo not drawn),11.5%
20,CCC(=O)N1CCC(NC2CCCC2)C1 (stereo not drawn),-7.41%

row,Structure (SMILES),cytotoxicity at 70.5 h
1,COc1cccc(CN2CC(O)CN(C(=O)C3CC3)CC2=O)c1OC (stereo not drawn),4.25%
2,c1ccc(N2CCC(OCC3CCCCO3)CC2)nc1 (stereo not drawn),0.314%
3,COCc1cc(CC2(NC3CCCCC3)COC2)no1,9.57%
4,Cc1ncc(CN2CCCC(c3cc(C(N)=O)[nH]n3)C2)s1 (stereo not drawn),57.9%
5,CCc1cc(N[C@@H](CC(C)C)C(N)=O)n2nc(C)c(C)c2n1,-8.65%
6,CC(O)c1cn(Cc2ccc(F)cc2)nn1 (stereo not drawn),-4.74%
7,COCc1cc(N2CCN(C3CCCCC3)CC2)n2nccc2n1,-4.81%
8,Cc1ccc(F)cc1C(=O)OCC1CCCN1C(N)=O (stereo not drawn),-1.91%
9,Cc1noc(-c2ccc(N3CCCC(C(N)=O)C3)nc2)n1 (stereo not drawn),-0.883%
10,COc1cccc(Cn2cc(C3=CCN(CCO)CC3)cn2)c1,-11%
11,Cc1cnn(C2CN(CC(=O)NCCOc3ccccc3)C2)c1,-4.92%
12,O=C(Nc1cccc(C2SCCS2)c1)C1CCCN1c1nccs1 (stereo not drawn),0.117%
13,CCc1noc(C(C)N(C)Cc2ccc(OC)c(OC)c2)n1 (stereo not drawn),1.83%
14,CN1CCO[C@@H]2CN(S(=O)(=O)c3ccccc3)C[C@@H]2C1,20.2%
15,Cc1ccc(C(=O)N2CCCC2c2nnc3n2CCCCC3)s1 (stereo not drawn),8.9%
16,CCN(C(=O)CNc1cc(C)c(F)cc1C(N)=O)C1CC1,0.591%
17,CCc1cnc(N2C[C@H]3C[C@H](C(=O)NCC(C)C)[C@@H](C2)O3)nc1,2.56%
18,Cc1ccc(CN2CC[C@@H]3O[C@@H](C(=O)N4CCN(C)CC4)C[C@@H]32)cc1,-1.43%
19,Cc1cc(C2CCCN2C(=O)c2cnn(C)c2)on1 (stereo not drawn),14%
20,CCc1ccc(C(=O)N2CCCC2c2c(C)nn(C)c2OC)o1 (stereo not drawn),-6.13%

row,Structure (SMILES),cytotoxicity at 70.5 h
1,Cc1nn(C2CCS(=O)(=O)C2)c(O)c1Cc1ccccc1 (stereo not drawn),-16.5%
2,Cn1ccnc1CN1CCC2(CC(=O)N(c3ccccn3)C2)C1 (stereo not drawn),-10.7%
3,Cc1ncsc1C(=O)N1CC(C)Sc2ccccc21 (stereo not drawn),-8.57%
4,COc1ccccc1N1CCN(C(=O)CCCS(N)(=O)=O)C(C)C1 (stereo not drawn),-5.3%
5,O=C(NCCc1nnc2n1CCC2)NCC1(c2ccc(F)cc2)CC1,-7.03%
6,O=C(COc1ccc(F)cc1F)N1CCOCC(O)(CN2CCCC2)C1 (stereo not drawn),-2.46%
7,Cc1n[nH]c(C2CN(CC(=O)NCc3ccco3)CCO2)n1 (stereo not drawn),15.9%
8,CCOC(=O)CCC(=O)N1CCC(Oc2ccc(C(F)(F)F)cn2)CC1,-4.1%
9,O=C(c1ccon1)N1CCc2ncnc(NCc3cccnc3)c2CC1,-5.39%
10,Cc1nnc(NC(=O)NCc2ccc(N3CCC(C)CC3)nc2)s1,-8.92%
11,CN(Cc1cc(-c2cccnc2)no1)C(=O)c1cccn1C,0.783%
12,O=C1C[C@H]2CC[C@@H](CN1)N2C1CCOCC1,-1.49%
13,Cc1cc(C)n(CC2CCCN2C(=O)c2ccc3c(c2)OCO3)n1 (stereo not drawn),6.92%
14,O=C([C@@H]1CCCO1)N1CCC(Cn2cc(-c3ccsc3)nn2)CC1,-7.52%
15,NC(=O)c1cccc(NC(=O)CSc2ccc3c(c2)CCC3)c1,-1.16%
16,O=C(CCc1cc(Cl)no1)N1CCC(c2cc3ncccc3cn2)CC1,0.563%
17,O=C(c1csnn1)N1CCCC(n2cncn2)C1 (stereo not drawn),15.3%
18,CN(C)c1cccc(C(=O)NCC2(O)CCOCC2)c1,-0.873%
